According to article PMC8777605 (Pharmaceuticals, 2021):
Entries after “also recorded” stand apart in the source; their conditions may differ. Read-outs that look alike come from different tables or passages of the source.

What was measured:
SARS-CoV-2 gamma strain = assay type: in vivo, K18-hACE2 mice
[1] = test system: SARS-CoV-2 gamma strain (P1, B.1.1.28); experiment: microbe, parasite or virus in culture; conditions: Severe acute respiratory syndrome coronavirus 2, Calu-3, 48 h
[2] = test system: human platelet-poor plasma clotting; experiment: Plasma clotting time (fibrin formation); conditions: three concentrations of ATV, Figure S3
Description: Human blood samples were collected from healthy donors in 3.8% trisodium citrate (9:1, v/v), and platelet-poor plasma was obtained by centrifugation at 3000 rpm for 10 min. […] Time for clot formation was recorded in triplicates.

[3] = Pharmacokinetics in plasma and lungs after oral dosing; assay type: in vivo, Swiss–Webster mice; conditions: mice, 60 mg/kg oral
Description: Each treatment group had five animals. After these periods of times, total blood and lungs were collected. Plasma was obtained by blood centrifugation at 8000× g for 15 min. Time zero was obtained by analyzing the matrix pool (blood plasma) of untreated animals. The pharmacokinetic parameters of half-life (t1/2, h), time until maximum concentration is reached (tmax, h), maximum compound concentration (Cmax, ng/mL) and area under the curve (AUC, h.ng/mL) were determined. The experiments performed in this section were approved by the Committee on the Use of Laboratory Animals of the Oswaldo Cruz Foundation (CEUA-FIOCRUZ, license L003/21).

Cytotoxic assay = assay type: cell-based; conditions: African green monkey, table title says Calu-3 cells, method says Vero cells
Description: All experiments were carried out at least three independent times and each data was analyzed from Prism GraphPad software 8.0 (Windows GraphPad Software, San Diego, CA, USA). The results were presented as mean ± standard deviation (SD).

[4] = molecular target: T1, SARS-CoV-2 papain-like protease (PL^pro) (Severe acute respiratory syndrome coronavirus 2, UniProt P0DTD1); experiment: SARS-CoV-2 PL^pro enzymatic assay (BPS Bioscience kit); assay type: biochemical
T1 construct: purchased BPS Bioscience #79995-1
Description: (§1) Fluorescence signal was measured at an emission wavelength of 460 nm with excitation at 360 nm in a GloMax® (Promega, Madison, WI, USA) plate reader. Morrison’s inhibitory constant (Ki) was calculated by non-linear regression using GraphPad Prism 9. […] After fluorescence quantification, the Michaelis–Menten constant (Km) and maximum velocity (Vmax) were calculated by non-linear regression using GraphPad Prism 9. The value was presented as mean ± standard deviation (SD).

[5] = molecular target: T2, SARS-CoV-2 main protease (M^pro) (Severe acute respiratory syndrome coronavirus 2, UniProt P0DTD1); experiment: biochemical
T2 construct: purchased BPS Bioscience #79955-1
Description: as §1

SARS-CoV-2 B.1 lineage = experiment: microbe, parasite or virus in culture; assay type: cell-based
[6] = test system: SARS-CoV-2 gamma strain (P1, B.1.1.28)

In the case of `COC(=O)N[C@H](C(=O)N[C@@H](Cc1ccccc1)[C@@H](O)CN(Cc1ccc(-c2ccccn2)cc1)NC(=O)[C@@H](NC(=O)OC)C(C)(C)C)C(C)(C)C` [ATV, atazanavir], the “Body weight, treated versus untreated infected mice” value (SARS-CoV-2 gamma strain; 60 mg/kg oral daily) is reported as “not a statical difference”, the “Lung injury (hemorrhage, shrinking of lobe, bronchiole and alveoli), histology” value (SARS-CoV-2 gamma strain; 60 mg/kg oral daily) is reported as “reduced” and the “SARS-CoV-2-induced IL-6 levels in the BAL and in the lungs” value (SARS-CoV-2 gamma strain; 60 mg/kg oral daily) is reported as “reduced”. The “Levels of IL-6, TNF-a, KC and PF4 in the BAL” value (SARS-CoV-2 gamma strain; 60 mg/kg oral daily, compared to untreated mice) was “lower levels”, the “Animal survival (in words)” value (SARS-CoV-2 gamma strain; mouse, in vivo) was “statistically significant increase” and the “Cell death (LDH activity) in BAL” value (SARS-CoV-2 gamma strain; mouse, in vivo) was “significantly decreased”. The Enhancement of survival (SARS-CoV-2 gamma strain; mouse, in vivo) was 30%, the “Polymorphonuclear and mononuclear cell counts in BAL” value (SARS-CoV-2 gamma strain; mouse, in vivo) was “significantly decreased” and the “SARS-CoV-2 RNA levels in BAL” value (SARS-CoV-2 gamma strain; mouse, in vivo) was “significantly decreased”. The EC50 [1] was 399 ± 20 nM, the Anti-clotting activity [2] was “could not prevent hemorrhage as an anti-clotting agent” and the AUC ([3]; Swiss-Webster, mouse, plasma) was 14300 ng·h/mL. For the same compound, the Cmax ([3]; Swiss-Webster, mouse, plasma) was 7430 ng/mL, the Tmax ([3]; Swiss-Webster, mouse, plasma) was 1 h and the half-life ([3]; Swiss-Webster, mouse, plasma) was 9.9 h. The “Distribution to the lung” value ([3]; AUC lung versus plasma) was “concentrated in the lung”, the CC50 at 3 days (Cytotoxic assay) was 312000 ± 8000 nM and the “Inhibition of PL^pro (in words)” value ([4]; 0–10 μM) was “did not inhibit; also recorded: above the threshold of in vitro inhibition”. For the same compound, the Ki ([4]; 100 nM PL^pro, 25 μM substrate, 45–60 min, 0–10 μM inhibitor, read-out: Morrison's inhibitory constant (Ki)) was 9870 nM, the Ki [5] was 703 ± 79 nM and the “Increase of M^pro's Km by the inhibitor” value ([5]; 2.5 μM ATV versus absence) was “more than sixfold”. For the same compound, the “Inhibition profile (mechanism)” value ([5]; Vmax not different, Km increased) was “competitive inhibition profile”, the “Maximum velocity (Vmax) of M^pro” value ([5]; in the presence of 2.5 μM ATV, substrate 0–100 μM) was 24.94 ± 3.70 µM/min and the EC50 (SARS-CoV-2 B.1 lineage) was 321 ± 16 nM. It also gave an EC50 (SARS-CoV-2 B.1 lineage; Severe acute respiratory syndrome coronavirus 2, Calu-3, 48 h) of 490 ± 20 nM.

With `CCC(CC)COC(=O)[C@H](C)N[P@](=O)(OC[C@H]1O[C@@](C#N)(c2ccc3c(N)ncnn23)[C@H](O)[C@@H]1O)Oc1ccccc1` [RDV, remdesivir] the EC50 [1] was 113 ± 10 nM, the CC50 at 3 days (Cytotoxic assay) was 512000 ± 30000 nM and the “SI (CC50/EC50)” value [6] was 4530.
